{"source": "patent US6699861B1", "about": "“Anti-quinazoline compounds” (Cancer Research Technology Limited, priority 1999, dated 2004)", "key": {"[1]": {"tested_on": "W1L2 human lymphoblastoid cells", "experiment": "Growth inhibition of W1L2 cells", "assay_type": "cell-based"}, "[2]": {"tested_on": "W1L2 cells", "experiment": "Growth inhibition of W1L2 in presence of folate metabolites (dThd/HX)", "assay_type": "cell-based, human", "conditions": "Homo sapiens; in the presence of 10 μM thymidine (dThd) and 50 μM hypoxantine (HX); read-out: Inhibition of Cell Growth IC50, W1L2 + dThd/HX (C)", "method": "Growth inhibition assays as described above were performed in W1L2 cells where compounds were incubated in the presence of 10 μM thymidine (dThd) and 50 μM hypoxantine (HX) (purchased from Sigma Chemical Co.)."}, "[3]": {"tested_on": "W1L2:C1 cells", "experiment": "Growth inhibition of W1L2:C1 cells (elevated TS)", "assay_type": "cell-based, human", "conditions": "read-out: Inhibition of Cell Growth IC50, W1L2:C1 (B)", "method": "(§1) W1L2 human lymphoblastoid, W1L2:C1 (elevated TS; O'Connor et al, Cancer Res, 52, 1137-1143 (1992)) and L1210 mouse leukaemia cells were cultured in suspension and A2780, PXN94, 41M, HX62, SKOV3 (human ovarian carcinoma), MCF-7 (human breast carcinoma), HT29 and SW480 (human colon carcinoma) cell lines were grown as monolayers as described in Jackman et al, Cancer Res, 50, 5212-5218 (1990) and Jackman et al, Br. J. Cancer, 71, 914-924 (1995).\n(§2) Growth inhibition studies with suspension cells were performed as described in Jackman et al, Cancer Res, 50, 5212-5218 (1990). Activity against the adherent cell lines was assessed by MTT assay (Twentyman et al, Br. J. Cancer, 56, 279-285 (1987)) where cells were seeded in 96-well plates at 1000-3000 cells per well, incubated overnight and then exposed to the appropriate drug concentrations for 96-120 h."}, "[4]": {"tested_on": "W1L2:R865 cell line", "experiment": "Growth inhibition of W1L2:R865 cells (acquired resistance to CB 30865)", "assay_type": "cell-based, human", "conditions": "read-out: Inhibition of Cell Growth IC50, W1L2:R865 (D), 72 h growth inhibition assay (Coulter counts)", "method": "A cell line was raised with acquired resistance to CB 30865, denoted W1L2:R865, by stepwise selection over ˜9 months.\nThe generated W1L2:R865 cell line was routinely cultured in 0.03 μm CB 30865 under the same conditions as W1L2 cells, with cells being grown in the absence of CB 30865 for ˜2 weeks before an experiment.\nThe activity of compounds against W1L2:R865 cells was determined within parallel experiments by 72 h growth inhibition assay (Coulter counts). CB 30865 was included in every experiment as an internal control."}, "[5]": {"tested_on": "CH1 ovarian carcinoma cell line", "experiment": "Hollow fibre assay, CH1 cells", "assay_type": "in vivo, nude mice", "conditions": "for O.D. as % control: harvested day 5", "method": "(§3) As adopted by the NCI, the hollow fibre assay (Hollingshead et al. 1995, Life Sciences, 57: 13 1-141) was used as an initial means of assessing the in vivo antitumour activity of CB 300919.\n(§4) The hollow fibre assay was performed using the CH1 ovarian carcinoma cell line and the HT29 colon line.\n(§5) Results are expressed as a % Treated/Control (T/C)."}, "[6]": {"tested_on": "HT29 colon line", "experiment": "Hollow fibre assay, HT29 cells", "assay_type": "in vivo, nude mice", "conditions": "for O.D. as % control: harvested day 5", "method": "as §3, §4, §5"}, "[7]": {"experiment": "MTD in DBA2 mice", "conditions": "mouse, in vivo", "method": "MTD in DBA2 mice ˜1.5 mg/kg/d×3 days."}, "[8]": {"tested_on": "HT29 cells", "experiment": "In vitro sensitivity of HT29 cells compared with CH1 cells", "assay_type": "cell-based, human", "method": "as §1, §2"}, "[9]": {"molecular_target": "mouse thymidylate synthase (TS) (Mus musculus, UniProt P07607)", "sequence (P07607 whole entry)": "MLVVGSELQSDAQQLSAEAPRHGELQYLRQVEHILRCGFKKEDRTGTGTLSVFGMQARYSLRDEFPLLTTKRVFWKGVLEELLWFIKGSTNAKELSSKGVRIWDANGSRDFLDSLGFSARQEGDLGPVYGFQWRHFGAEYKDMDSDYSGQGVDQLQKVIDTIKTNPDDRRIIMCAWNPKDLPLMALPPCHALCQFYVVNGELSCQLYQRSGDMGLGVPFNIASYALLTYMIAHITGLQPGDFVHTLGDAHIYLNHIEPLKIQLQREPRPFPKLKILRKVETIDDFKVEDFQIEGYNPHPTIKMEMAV", "experiment": "Inhibition of L1210 thymidylate synthase (TS)"}, "[10]": {"experiment": "Tolerability (weight loss, deaths, MTD) in nude mice", "protocol": "One day later (day 1), CB 300919 was administered by ip injection, daily for 3 days (days 1-3).\nMice injected with CB 300919 i.p. on days 1-3."}, "[11]": {"conditions": "background statement on the known compound; cited from earlier work"}, "[12]": {"conditions": "0.25 mg/kg/d i.p. daily x 3 days"}, "[13]": {"conditions": "0.50 mg/kg/d i.p. daily x 3 days"}, "[14]": {"conditions": "0.75 mg/kg/d i.p. daily x 3 days"}}, "note": "Where “and” joins values, the source holds several entries; their conditions need not be identical. Equal values may be shown once. Read-outs that look alike come from different tables or passages of the source."}
{"smiles": "C#CCN(Cc1cc2c(=O)n(C)c(CN3CCN(C)CC3)nc2cc1Cl)c1ccc(C(=O)NCc2cccnc2)cc1", "note": "[CB300919, 4-[N-[7-Chloro-3-methyl-2-(4-methyl-piperazin-1-yl)methyl-4-oxo-3,4-dihydroquinazolin-6-ylmethyl]-N-(prop-2-ynyl)amino]-N-(3-pyridylmethyl)benzamide]", "values": [{"measurement": "IC50", "setting": "[1]; W1L2 suspension cells, read-out: Inhibition of Cell Growth IC50, W1L2 (B)", "value": "0.49 ± 0.24", "unit": "nM"}, {"measurement": "IC50", "setting": "[2]", "value": 0.32, "unit": "nM"}, {"measurement": "IC50", "setting": "[3]", "value": "0.44 nM and 0.28 nM"}, {"measurement": "IC50", "setting": "[4]", "value": "13000 ± 4500", "unit": "nM"}, {"measurement": "optical density (% Treated/Control)", "setting": "[5]; CH1 cells in the fibres, all doses given IP (0.25-0.75 mg/kg/day×3 days)", "value": "< 15", "unit": "%"}, {"measurement": "O.D. as % control", "setting": "[5]; CH1 ovarian, 0.25 mg/kg/d i.p. daily x 3 days", "value": 13, "unit": "%"}, {"measurement": "O.D. as % control", "setting": "[5]; CH1 ovarian, 0.50 mg/kg/d i.p. daily x 3 days", "value": 13, "unit": "%"}, {"measurement": "O.D. as % control", "setting": "[5]; CH1 ovarian, 0.75 mg/kg/d i.p. daily x 3 days", "value": 13, "unit": "%"}, {"measurement": "Dose to give 50% inhibition of tumour growth", "setting": "[5]; CH1 ovarian, i.p. daily x 3 days", "value": "<0.25", "unit": "mg/kg/day"}, {"measurement": "O.D. as % control", "setting": "[6]; [12]", "value": 92, "unit": "%"}, {"measurement": "O.D. as % control", "setting": "[6]; [13]", "value": 34, "unit": "%"}, {"measurement": "O.D. as % control", "setting": "[6]; [14]", "value": 29, "unit": "%"}, {"measurement": "Dose to give 50% inhibition of tumour growth", "setting": "[6]; i.p. daily x 3 days", "value": 0.4, "unit": "mg/kg/day"}, {"measurement": "MTD at 3 days", "setting": "[7]", "value": "~1.5", "unit": "mg/kg/day"}, {"measurement": "lower sensitivity of HT29 cells in vitro", "setting": "[8]", "value": "~10", "unit": "fold"}, {"measurement": "Inhibition of L1210 TS (A) IRP* (inverse relative potency)", "setting": "[9]", "value": ">2500"}, {"measurement": "Weight loss (up to day 5)", "setting": "[10]; [12]", "value": "No sig. wt. loss"}, {"measurement": "Weight loss (up to day 5)", "setting": "[10]; [13]", "value": "0-19% wt. loss"}, {"measurement": "Weight loss (up to day 5)", "setting": "[10]; [14]", "value": "9-22% wt. loss"}, {"measurement": "Comments: mice killed", "setting": "[10]; 0.75 mg/kg/d i.p. daily x 3 days, d4, 22% wt. loss", "value": "⅓ killed (d4; 22% wt. loss"}, {"measurement": "MTD at 3 days", "setting": "[10]; nude, mouse, in vivo, intraperitoneal", "value": "0.5 to 0.75", "unit": "mg/kg/day"}]}
{"smiles": "C#CCN(Cc1cc2c(=O)[nH]c(C)nc2cc1Br)c1ccc(C(=O)NCc2cccnc2)cc1", "note": "[CB30865, 4-[N-[7-bromo-2-methyl-4-oxo-3,4-dihydroquinazolin-6-ylmethyl]-N-(prop-2-ynyl)amino]-N-(3-pyridylmethyl)benzamide, reference compound]", "values": [{"measurement": "IC50", "setting": "[1]; Homo sapiens, Lymphoblastoid cell, W1L2 suspension cells, read-out: Inhibition of Cell Growth IC50, W1L2 (B)", "value": "2.8 ± 0.5", "unit": "nM"}, {"measurement": "IC50", "setting": "[1]; Homo sapiens, Lymphoblastoid cell, W1L2 cells, 72 h, read-out: 72 h IC50", "value": 2.8, "unit": "nM"}, {"measurement": "IC50", "setting": "[2]", "value": "2.2 ± 0.82", "unit": "nM"}, {"measurement": "IC50", "setting": "[3]; Homo sapiens", "value": "2.3 ± 0.15", "unit": "nM"}, {"measurement": "IC50", "setting": "[4]; Homo sapiens", "value": 610, "unit": "nM"}, {"measurement": "water-solubility", "setting": "[11]", "value": "very low water-solubility"}]}
